Assay results reported in PMC5309220, “Screening for Small Molecule Inhibitors of Statin-Induced APP C-terminal Toxic Fragment Production” (Frontiers in Pharmacology, 2017).
Like-named read-outs stand apart in the source and are kept apart here.

Assays:
[1] = tested on: cerivastatin-induced APPΔC31 in CHO-7W cells; assay: APPΔC31 AlphaLISA dose-response, cerivastatin-induced; assay type: cell-based, Chinese hamster; conditions: 24 h; for inhibition of cerivastatin-induced APPΔC31 (in words): dose-response curves
Experimental: The APPΔC31 AlphaLISA assay (Figures 2C–E) was run directly in the plate with the cell lysate as described above in “AlphaLISA to detect APPΔC31.” APPΔC31 levels were measured using the Envision plate reader and data were normalized to DMSO (100% APPΔC31 production) and Q-VD-OPh (MP Biomedicals) pan-caspase inhibitor at 30 μM (0%); these controls were present on each plate. In addition, some compounds of interest were further analyzed in a dose-response curve to determine IC50 values.
The broad-spectrum pan-caspase inhibitor Q-VD-OPh served as the positive control.
Lysates were prepared and APPΔC31 determined by ELISA. (B) CHO-7W cells were treated with 10 μM cerivastatin plus increasing doses of caspase and MEK inhibitors for 24 h. Lysates were prepared and APPΔC31 determined by AlphaLISA. Click here for additional data file.

[2] = tested on: cerivastatin-induced APPΔC31 production in CHO-7W cells; assay: APPΔC31 ELISA validation assay, cerivastatin-induced; assay type: cell-based, Chinese hamster; conditions: 24 h; for inhibition of APPΔC31 production (in words) / IC50: CHO-7W; for inhibition of APPΔC31 production (in words) / APPΔC31 Inh. (mean %): 10 μM cerivastatin; for inhibition of APPΔC31 production (in words): thapsigargin 0.033-0.3 μM, 2,5-Di-tert-butylhydroquinone 1 and 10 μM; for APPΔC31 Inh. (mean %): CHO-7W cells, test concentration not given; for IC50: Cricetulus griseus, (E) ELISA, cerivastatin-induced, read-out: IC50 (E), APPΔC31 inhibition
Experimental: The APPΔC31 ELISA developed in partnership with Enzo Life Sciences (ADI-900-227) follows a standard sandwich ELISA design wherein a monoclonal N-terminal APP-specific antibody is used to coat the wells of the microtiter plate (capture antibody) and the anti-APPΔC31 cleavage site-specific polyclonal antibody serves as the detection antibody. An HRP-conjugated secondary antibody is then added and a colorimetric signal generated by enzymatic conversion of the tetramethylbenzidine (TMB) substrate. Protein levels were first determined using a colorimetric coomassie assay (Coomassie Plus, Thermo).
A subset of hits from our HTS was validated in a secondary assay. […] Thapsigargin also acts as a sarco/endoplasmic reticulum calcium ATPase (SERCA) inhibitor. Therefore, another SERCA inhibitor, 2,5-Di-tert-butylhydroquinone, was also added to the testing. In this secondary assay, CHO-7W cells were cultured as described above and plated into 24-well dishes at ∼200K/well. […] These hits were selected for their potency in primary screen, their structural features, their known activities, and availability of compound for additional testing. There were cerivastatin-only (negative control), + QVD-OPh (positive control), and for viability, vehicle-only (negative) controls. Cells were harvested by removing the media to a tube, adding […] trypsin to detach cells then neutralizing with media. […] Cells were centrifuged at 5000 rpm (2300 × g) for 5 min. Cell pellets were frozen until use. Forty μL cold RIPA buffer plus complete protease inhibitors (Roche) was added to each pellet and the pellets were reconstituted by pipetting up and down, incubating on ice for 30 min, vortexing, and centrifugation as above. Cell lysate supernatants were then assayed by APPΔC31 ELISA as described above. For most compounds, multiple/repeat studies were performed and two wells used for each condition. Statistical comparison was performed using one-way ANOVA for multiple comparisons, with a Dunnett post hoc test to compare each condition to the control. Further dose-response studies were performed on select compounds.

CHO-7W cells = conditions: with 10 μM cerivastatin
[3] = tested on: APPΔC31 production in CHO-7W cells; assay: Statin induction of APPΔC31, ELISA; assay type: cell-based, Chinese hamster; conditions: 24 h, statins at 1, 5 and 10 μM
Experimental: An HRP-conjugated secondary antibody is then added and a colorimetric signal generated by enzymatic conversion of the tetramethylbenzidine (TMB) substrate. Protein levels were first determined using a colorimetric coomassie assay (Coomassie Plus, Thermo).
APPΔC31 was determined in cell lysates by ELISA.

[4] = PAMPA / immobilized artificial membrane (IAM.PC.DD2) chromatography; assay type: in vitro ADME; conditions: IAM.PC.DD2 column, water/methanol gradient
[5] = low concentrations (thapsigargin 0.033-0.3 μM, 2,5-Di-tert-butylhydroquinone 1 and 10 μM)

With N#C/C(=C(/N)Sc1ccc(N)cc1)c1ccccc1C(F)(F)F [SL327] as the compound, how does the “inhibition of cerivastatin-induced APPΔC31 (in words)” value ([1]; 10 μM cerivastatin, AlphaLISA) read?
The value was “ineffective”.

With N#CC(=C(/N)Sc1ccccc1N)/C(C#N)=C(/N)Sc1ccccc1N [U0126] as the compound, how does the “reduction of APPΔC31” value ([1]; from 10 to 50 μM, 10 μM cerivastatin, AlphaLISA) read?
Its value is roughly 25%.

For CC(C)(C)c1cc(O)c(C(C)(C)C)cc1O [2,5-Di-tert-butylhydroquinone], which “inhibition of APPΔC31 production (in words)” value [2] is on record?
The value was “very effective”.

What about the “cell survival rescue (in words)” value (CHO-7W cells; [5]) of the same compound?
Its value is “highest cell survival”.

With CC(C)c1c(C(=O)Nc2ccccc2)c(-c2ccccc2)c(-c2ccc(F)cc2)n1CC[C@@H](O)C[C@@H](O)CC(=O)O [Atorvastatin] as the compound, how does the “induction of APPΔC31 (in words)” value [3] read?
The value was “much less effective”.

With Cn1cc(C2=C(c3ccc(Cl)cc3Cl)C(=O)NC2=O)c2ccccc21 [SB216763] as the compound, how does the “APPΔC31 Inh. (mean %)” value [2] read?
Its value is 54%.

And the IC50 [2]?
The IC50 was greater than 10 µM.

For CO[C@H]1C[C@@H]2CC[C@@H](C)[C@@](O)(O2)C(=O)C(=O)N2CCCC[C@H]2C(=O)O[C@H]([C@H](C)C[C@@H]2CC[C@@H](O)[C@H](OC)C2)CC(=O)[C@H](C)/C=C(\C)[C@@H](O)[C@@H](OC)C(=O)[C@H](C)C[C@H](C)/C=C/C=C/C=C/1C [Rapamycin], which “APPΔC31 Inh. (mean %)” value [2] is on record?
The value was 99%.

What about the IC50 [2] of the same compound?
Its IC50 is greater than 10 µM.

And the “cell survival rescue (in words)” value (CHO-7W cells; at 30 μM, among hits from HTS)?
Its value is “greatest cell survival rescue effects”.

For C/C=C(/C)C(=O)O[C@H]1C(C)=C2[C@H]([C@@H]1OC(=O)CCCCCCC)[C@@](C)(OC(C)=O)C[C@H](OC(=O)CCC)[C@@]1(O)[C@H]2OC(=O)[C@@]1(C)O [Thapsigargin], which “APPΔC31 Inh. (mean %)” value [2] is on record?
Its value is 97%.

What about the “inhibition of APPΔC31 production (in words)” value [2] of the same compound?
Its value is “remarkably potent inhibitor”.

And the IC50 [2]?
The IC50 was 0.077 µM.

And the “cell survival rescue (in words)” value (CHO-7W cells; [5])?
Its value is “highest cell survival”.

For O=c1c(O)c(-c2ccc(O)cc2)oc2cc(O)cc(O)c12 [Kaempferol], which “APPΔC31 Inh. (mean %)” value [2] is on record?
The value was 65%.

What about the IC50 [2] of the same compound?
The IC50 was greater than 10 µM.

Which “APPΔC31 Inh. (mean %)” value [2] does the source give for CC/C(=C(\c1ccccc1)c1ccc(OCCN(C)C)cc1)c1ccccc1 [Tamoxifen] here?
Its value is 56%.

What does the source list for Oc1ccc(-c2nc(-c3ccncc3)c(-c3ccc(F)cc3)[nH]2)cc1 [SB202190]?
APPΔC31 Inh. (mean %) [2]: 58%; IC50 [2]: > 10 µM

For CS/C(N)=C(C#N)/C(C#N)=C(\N)SC [U0124], which “inhibition of cerivastatin-induced APPΔC31 (in words)” value ([1]; 10 μM cerivastatin, AlphaLISA) is on record?
The value was “ineffective”.

For O=c1[nH]c2ccccc2n1C1CCN(CCCC(c2ccc(F)cc2)c2ccc(F)cc2)CC1 [Pimozide], which “KIAM (IAM capacity factor)” value [4] is on record?
Its value is 3.3.

And the “APPΔC31 Inh. (mean %)” value [2]?
Its value is 98%.

What about the “cell survival rescue (in words)” value (CHO-7W cells; at 30 μM, among hits from HTS) of the same compound?
The value was “greatest cell survival rescue effects”.

What about the “% Min (APPΔC31 dose-response)” value ([1]; AlphaLISA dose-response (Figure 5C), cerivastatin-stimulated) of the same compound?
The value was 19%.

What about the IC50 ([1]; Cricetulus griseus, (A) AlphaLISA, cerivastatin-induced, read-out: IC50 (A), APPΔC31 inhibition) of the same compound?
The IC50 was 3.6 µM.
